Measurements reported in patent US6323340A, “Phthalocyanine compound, method for production thereof, and near infrared absorption dye using the compound” (Nippon Shobukai Co., Ltd., priority 1999, dated 2001).

Columns and labels:
[1] = maximum absorption wavelength and absorptivity coefficient in toluene (spectrophotometer); assay type: physicochemical; conditions: for Absorptivity Coefficient ε: at maximum absorption wavelength
Description: By the use of a spectrophotometer (Shimadzu Seisakusho Ltd., UV-3100), the phthalocyanine compound obtained in this example [VOPc(2,5-Cl2 PhO)8 (2,6-Br2 -4-CH3 PhO)4 {Ph(CH3)CHNH}3 F] was tested for the maximum absorption wavelength and the absorptivity coefficient in toluene.

[2] = transmittance to the visible ray of chloroform solution (JIS R3106); assay type: physicochemical; conditions: 1 cm quartz cell, lowest transmittance at 750 to 1050 nm set to 5 to 6%
Description: In a quartz cell of 1 cm, this phthalocyanine compound was diluted with chloroform until the lowest value of the transmittance at 750 to 1050 nm reached a level in the range of 5 to 6%.

[3] = solubility in toluene and methylethyl ketone at room temperature; conditions: 25° C.
Description: At a room temperature (25° C.), the phthalocyanine compound was gradually dissolved in each the solutions of toluene and methylethyl ketone (MEK) (each 10 ml in volume). The solutions in the process of dissolving the compound were visually examined to find the finally dissolved amounts of the compound, i.e. the concentrations (solubility) of the phthalocyanine compound as a solute in the saturated solutions.

Substance	Maximum Absorption Wavelength [1]	Absorptivity Coefficient ε [1]	Transmittance to Visible Ray [2]	Solubility MEK ([3]; methylethyl ketone)	Solubility Toluene ([3]; toluene)
VOPc(2,5-Cl2 PhO)8 (2,6-(CH3)2 PhO)4 {Ph(CH3)CHNH}3 F [Example 3]	834 nm	84000	82%		
VOPc(2,5-Cl2 PhO)8 (2,6-Br2 -4-CH3 PhO)4 {Ph(CH3)CHNH}3 F [Example 1]	835 nm	76000	79%		
VOPc(2,5-Cl2 PhO)8 (2,6-Br2 -4-CH3 PhO)4 {PhCH2 NH}3 F [Example 2]	840 nm	68000	81%		
VOPc(PhNH)8 (PhS)8 [Control 1, reference compound]	950 nm		50%		
octafluoro-octakisanilino oxyvanadium phthalocyanine [Control 2, reference compound]	860 nm		48%		

Continued, in another order:

Maximum Absorption Wavelength [1]	Absorptivity Coefficient ε [1]	Transmittance to Visible Ray [2]	Substance	Solubility MEK ([3]; methylethyl ketone)	Solubility Toluene ([3]; toluene)
810 nm	154000	85%	CuPc(2,5-Cl2 PhO)8 (2,6-(CH3)2 PhO)4 (PhCH2 NH)4 [Example 8]		
880 nm	128200	83%	VOPc(2,5-Cl2 PhO)8 (2,6-(CH3)2 Pho)4 (PhCH2 NH)4 [Example 7]		
835 nm	92000	83%	VOPc(2,6-Cl2 PhO)8 (2,6-(CH3)2 PhO)4 {Ph(CH3)CHNH}3 F [Example 4]		
834 nm	83000	81%	VOPc(4-CNPhO)8 (2,6-(CH3)2 PhO)4 {Ph(CH3)CHNH}3 F [Example 6]	.circleincircle. (a solubility of not less than 5% by weight)	.circleincircle. (a solubility of not less than 5% by weight)
836 nm	72000	80%	VOPc(4-CNPhO)8 (2,6-Br2 -4-CH3 PhO)4 {Ph(CH3)CHNH}3 F [Example 5]		
920 nm	130800	79%	VOPc(PhS)8 (2,6-(CH3)2 PhO)4 (PhCH2 NH)4 [Example 9]		
